# According to patent US7541364B2, “Pyridomorphinans, pyridazinomorphinans and use thereof” (priority 2003, dated 2009):
# Read-outs that look alike come from different tables or passages of the source.
# What was measured:
# [1] = molecular target: μ receptor (guinea pig ileum) (Cavia porcellus, UniProt A0ACM8Q262); conditions: data from Ananthan et al. (I), cited from earlier work
# opioid δ receptor [2] = molecular target: T1, opioid δ receptor (Rattus norvegicus, UniProt P33533); conditions: read-out: Ki (nM) ± SEM δ; [3H]DADLE, rat brain membranes; data from Ananthan et al. (I); cited from earlier work
# T1 construct: Rat membranes are prepared each day using a partially thawed frozen rat brain; from tissue; host or cells: rat brain membranes
# T1 sequence (P33533 whole entry): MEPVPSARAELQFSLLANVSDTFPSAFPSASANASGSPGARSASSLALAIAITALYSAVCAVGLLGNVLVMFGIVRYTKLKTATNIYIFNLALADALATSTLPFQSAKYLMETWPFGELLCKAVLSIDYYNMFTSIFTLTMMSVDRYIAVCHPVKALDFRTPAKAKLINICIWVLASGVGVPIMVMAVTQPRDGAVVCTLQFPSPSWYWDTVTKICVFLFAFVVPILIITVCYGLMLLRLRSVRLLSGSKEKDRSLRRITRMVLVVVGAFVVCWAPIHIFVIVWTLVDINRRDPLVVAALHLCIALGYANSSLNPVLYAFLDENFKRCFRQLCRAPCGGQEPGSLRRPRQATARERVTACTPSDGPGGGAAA
# opioid κ receptor [3] = molecular target: T2, opioid κ receptor (Cavia porcellus, UniProt P41144); conditions: data from Ananthan et al. (I), cited from earlier work
# T2 sequence (P41144 whole entry): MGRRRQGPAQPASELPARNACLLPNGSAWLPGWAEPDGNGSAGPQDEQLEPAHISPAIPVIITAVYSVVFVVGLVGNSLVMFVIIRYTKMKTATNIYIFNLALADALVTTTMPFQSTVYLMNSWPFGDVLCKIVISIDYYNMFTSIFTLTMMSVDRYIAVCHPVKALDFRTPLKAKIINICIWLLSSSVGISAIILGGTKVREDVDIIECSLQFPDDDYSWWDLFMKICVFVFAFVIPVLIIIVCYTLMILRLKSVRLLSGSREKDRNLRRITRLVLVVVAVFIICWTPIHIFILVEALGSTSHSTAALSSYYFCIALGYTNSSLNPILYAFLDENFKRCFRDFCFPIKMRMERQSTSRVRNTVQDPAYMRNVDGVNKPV
# [4] = molecular target: T3, δ receptor (mouse vas deferens) (Mus musculus, UniProt P32300); conditions: percentage inhibition of contraction at 1 μM; data from Ananthan et al. (I); cited from earlier work
# T3 sequence (P32300 whole entry): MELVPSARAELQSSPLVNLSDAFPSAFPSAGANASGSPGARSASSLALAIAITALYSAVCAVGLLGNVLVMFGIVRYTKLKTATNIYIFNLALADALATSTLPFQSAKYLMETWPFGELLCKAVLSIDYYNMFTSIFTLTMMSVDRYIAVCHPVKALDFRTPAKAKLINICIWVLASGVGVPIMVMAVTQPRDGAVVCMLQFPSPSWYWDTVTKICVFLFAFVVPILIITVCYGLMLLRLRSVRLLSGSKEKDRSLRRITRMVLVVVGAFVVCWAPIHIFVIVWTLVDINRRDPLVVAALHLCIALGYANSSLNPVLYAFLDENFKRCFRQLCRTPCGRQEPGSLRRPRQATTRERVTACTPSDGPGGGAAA
# [5] = molecular target: T3, δ receptor (mouse vas deferens); set-up: from tissue; host or cells: mouse vas deferens (male ICR mice); conditions: DPDPE as agonist; data from Ananthan et al. (I); cited from earlier work
# opioid μ receptor [6] = molecular target: T4, opioid μ receptor (Rattus norvegicus, UniProt P33535); conditions: data from Ananthan et al. (I), cited from earlier work
# T4 sequence (P33535 whole entry): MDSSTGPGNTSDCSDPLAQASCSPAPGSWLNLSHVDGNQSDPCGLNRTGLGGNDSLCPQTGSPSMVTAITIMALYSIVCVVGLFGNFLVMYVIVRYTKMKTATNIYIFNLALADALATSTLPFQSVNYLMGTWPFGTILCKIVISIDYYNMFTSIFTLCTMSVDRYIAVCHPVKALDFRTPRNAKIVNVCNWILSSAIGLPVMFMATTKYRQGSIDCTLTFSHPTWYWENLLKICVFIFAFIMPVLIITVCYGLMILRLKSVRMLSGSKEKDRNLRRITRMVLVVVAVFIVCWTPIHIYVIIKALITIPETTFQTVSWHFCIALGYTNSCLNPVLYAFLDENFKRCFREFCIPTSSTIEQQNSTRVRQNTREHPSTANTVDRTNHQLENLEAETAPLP
# mice [7] = conditions: icv or ip administration in mice; Wells et al.; cited from earlier work
# human μ receptors = human μ receptors (Homo sapiens, UniProt P35372); conditions: cloned cells expressing human μ receptors; Xu et al.; cited from earlier work
# Sequence of human μ receptors (P35372 whole entry): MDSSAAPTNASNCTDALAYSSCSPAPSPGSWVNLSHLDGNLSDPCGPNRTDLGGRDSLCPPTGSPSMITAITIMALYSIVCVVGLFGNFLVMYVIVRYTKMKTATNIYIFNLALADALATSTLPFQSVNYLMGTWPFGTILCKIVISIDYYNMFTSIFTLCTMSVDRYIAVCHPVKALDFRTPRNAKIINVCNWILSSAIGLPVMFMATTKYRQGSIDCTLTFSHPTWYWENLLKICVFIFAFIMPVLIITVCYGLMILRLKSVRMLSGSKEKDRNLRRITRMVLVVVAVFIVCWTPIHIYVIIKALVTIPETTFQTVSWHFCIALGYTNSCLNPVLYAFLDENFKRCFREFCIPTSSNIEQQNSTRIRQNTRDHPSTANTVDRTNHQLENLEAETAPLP
# μ receptor [8] = molecular target: T5, μ receptor (Cavia porcellus, UniProt A0ACM8Q262); conditions: guinea pig caudate membranes; Xu et al.; cited from earlier work
# T5 sequence (A0ACM8Q262 1-400): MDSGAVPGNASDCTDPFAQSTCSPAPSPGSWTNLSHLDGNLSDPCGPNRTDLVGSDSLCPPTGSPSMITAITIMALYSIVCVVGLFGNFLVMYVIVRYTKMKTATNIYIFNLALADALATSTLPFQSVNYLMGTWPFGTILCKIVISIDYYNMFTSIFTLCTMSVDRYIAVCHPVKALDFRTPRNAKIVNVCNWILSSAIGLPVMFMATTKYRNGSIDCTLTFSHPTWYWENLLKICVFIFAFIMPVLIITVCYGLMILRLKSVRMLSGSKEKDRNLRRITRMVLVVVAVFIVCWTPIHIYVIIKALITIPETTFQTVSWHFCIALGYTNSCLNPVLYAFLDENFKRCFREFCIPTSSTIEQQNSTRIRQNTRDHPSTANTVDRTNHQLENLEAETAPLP
# κ receptor = κ receptor (Cavia porcellus, UniProt P41144); conditions: read-out: antagonist activity apparent Ki (nM ± SD) κ
# Sequence of κ receptor (P41144 whole entry): as the sequence (P41144 whole entry) above
# mice [9] = conditions: icv or ip administration in mice; Wells et al.; cited from earlier work; remark: listed apart in the source
# mice [10] = assay: 55° C. tail-flick antinociception test in mice; conditions: for naloxone sensitivity: naloxone 10 mg/kg ip, -10 min, yes = greater than 80% reduction in the antinociceptive effect
# Protocol: Analgesic Testing and Assessment of Tolerance Development. The analgesic activity of selected ligands is tested in mice using the 55° C. tail-flick test as previously described. (See Wells et al., supra.) The test compounds are administered by the intracerbroventricular (icv) route. […] To determine whether the analgesic activity of the tested compounds is mediated through opioid receptors, the blockade of antinociceptive activity by pretreatment with naloxone is carried out. The analgesic activity was considered as naloxone sensitive if greater than 80% reduction in the antinociceptive response is observed.
# Antinociceptive Studies. Male ICR mice (Harlan) are used for all evaluations. Mice are housed in a temperature and humidity controlled vivarium on a 12:12 h light:dark cycle with unlimited access to food and water prior to the formal procedures. […] The dihydrochloride salt of 7h is dissolved in water and injected in a volume of 5 μL. All other compounds are dissolved in 100% DMSO and injected in a volume of 5 μL. Antinociceptive assays are performed at various times after injection.
# Percent antinociception is calculated using the formula: % MPE (maximal possible effect)=100×(test−control)/(cutoff−control) where control is the predrug observation, test is the postdrug observation, and cutoff is the maximal length of stimulus allowed (10 s for 55° C. tail-flick). Antinociceptive A50 values and 95% confidence intervals are determined using linear regression software (FlashCalc). Opioid activity of the test compounds are assessed by pretreating animals with naloxone (10 mg/kg ip, −10 min) followed by an icv injection of an approximate A90 dose of test compound. […] Antinociception is assessed in the 55° C. tail-flick test at 10, 20 and 30 min. A positive response to a fixed dose of naloxone is indicated when greater than 80% reduction in the antinociceptive effect of the agonist is observed.
# δ receptor = δ receptor (Cavia porcellus, UniProt A0A286XTF2); assay: biochemical
# Sequence of δ receptor (A0A286XTF2 1-366): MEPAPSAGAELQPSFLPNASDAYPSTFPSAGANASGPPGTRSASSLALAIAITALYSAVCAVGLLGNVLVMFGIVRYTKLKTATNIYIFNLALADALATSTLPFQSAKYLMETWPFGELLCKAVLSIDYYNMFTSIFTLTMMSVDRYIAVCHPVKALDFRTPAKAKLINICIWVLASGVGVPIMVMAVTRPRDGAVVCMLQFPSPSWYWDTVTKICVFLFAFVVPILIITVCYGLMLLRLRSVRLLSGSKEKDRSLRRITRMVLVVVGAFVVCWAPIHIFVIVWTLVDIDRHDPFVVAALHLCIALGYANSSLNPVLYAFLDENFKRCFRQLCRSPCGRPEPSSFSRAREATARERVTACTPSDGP
# mice [11] = conditions: repeated ip injections; Wells et al.; cited from earlier work
# mice [12] = assay: Tolerance regimen, repeated icv injections, tail-flick assay; conditions: A90 doses icv twice daily for 3 days, tail-flick on day 4; FIG. 4
# Excerpt: Tolerance Regimen. […] Antinociceptive dose-response curves in the tail-flick assay are generated on the morning of the fourth day using the procedures outlined above.
# opioid δ receptor [13] = molecular target: T1, opioid δ receptor; assay: Opioid δ receptor binding, [3H]DADLE displacement in rat brain membranes; conditions: displacement of [3H]DADLE (1.3-2.0 nM), rat brain membranes, 100 nM DAMGO to block μ sites; read-out: Ki (nM) ± SEM δ
# [14] = molecular target: T3, δ receptor (mouse vas deferens); assay: Mouse vas deferens (MVD) smooth muscle bioassay; conditions: inhibition of electrically stimulated contractions; read-out: agonist activity MVD (δ) IC50
# Protocol: (§1) Bioassays in Smooth Muscle Preparations. The functional activity profiles of selected ligands are also determined in the mouse vas deferens (MVD) and guinea pig ileum (GPI) smooth muscle preparations as described previously.
# (§2) The agonist activity is determined by the ability of the compound to inhibit electrically stimulated contractions of the GPI and MVD. The GPI is primarily a μ receptor preparation, even though the ileum does also contain κ receptors. In the MVD, the opioid effects are predominantly mediated through δ receptors, but μ and κ receptors also exist in this tissue.
# (§3) Tissues came from male ICR mice weighing 25-40 g and male Hartley guinea pigs weighing 250-500 g. The tissues are tied to gold chain with suture silk, suspended in 20 mL baths containing 37° C. oxygenated (95% O2, 5% CO2) Krebs bicarbonate solution (magnesium free for the MVD), and allowed to equilibrate for 15 min. The tissues are then stretched to optimal length previously determined to be 1 g tension (0.5 g for MVD) and allowed to equilibrate for 15 min. The tissues are stimulated transmurally between platinum wire electrodes at 0.1 Hz, 0.4 ms pulses (2-ms pulses for MVD), and supramaximal voltage. […] Tissues not producing typical results are not used. Experimental compounds were added to the baths in 14-60 μL volumes. Succeeding doses of agonist are added cumulatively to the bath at 3 min intervals to produce a concentration-response curve. The tissues are then washed extensively with fresh buffer until the original contraction height is reestablished. […] The tissues are then washed with fresh buffer for 30 min, and the agonist dose-response curve was repeated. Rightward shifts in the dose-response curves are calculated by dividing the antagonized dose-response curve IC50 value by the unantagonized IC50 value. IC50 values represent the mean of two to four tissues. IC50 estimates and their associated standard errors are determined by using a computerized nonlinear least-squares method. (MINSQ Least Squares Parameter Estimation, version 3.05; MicroMath Inc., 1999.)
# μ receptor [15] = molecular target: T5, μ receptor; assay: biochemical; conditions: read-out: agonist activity Emax % μ
# opioid μ receptor [16] = molecular target: T4, opioid μ receptor
# opioid κ receptor [17] = molecular target: T2, opioid κ receptor
# [18] = molecular target: T3, δ receptor (mouse vas deferens); assay: Mouse vas deferens (MVD) smooth muscle bioassay; set-up: from tissue; host or cells: mouse vas deferens (male ICR mice)
# Protocol: as §1, §2, §3
# Sequence of μ receptor (guinea pig ileum) (A0ACM8Q262 1-400): as the sequence (A0ACM8Q262 1-400) above
compound,measurement,setting,value
Oc1ccc2c3c1OC1c4ncc(-c5ccccc5)cc4CC4(O)C(C2)N(CC2CC2)CCC314 (stereo not shown) [2b],antagonist activity GPI (μ) Ke,[1]; PL-017 as agonist,43 ± 6.6 nM
same,agonist activity GPI (μ) % max resp,[1]; percentage inhibition of contraction at 1 μM,0%
same,Ki,opioid δ receptor [2],0.87 ± 0.07 nM
same,selectivity ratio κ/δ,opioid κ receptor [3],20
same,Ki,"opioid κ receptor [3]; read-out: Ki (nM) ± SEM κ, [3H]U69,593, guinea pig brain membranes",17.6 ± 1.6 nM
same,agonist activity MVD (δ) % max resp,[4],4.7%
same,antagonist activity MVD (δ) Ke,[5],3.7 ± 1.0 nM
same,selectivity ratio μ/δ,opioid μ receptor [6],16
same,Ki,"opioid μ receptor [6]; read-out: Ki (nM) ± SEM μ, [3H]DAMGO, rat brain membranes",13.5 ± 1 nM
Oc1ccc2c3c1O[C@H]1c4ncc(-c5ccc(Cl)cc5)cc4C[C@@]4(O)[C@@H](C2)N(CC2CC2)CC[C@]314 [2c],analgesic activity in the acetic acid writhing assay,mice [7],full agonist activity
same,μ agonist activity in [35S]GTP-γ-S binding,human μ receptors,failed to display μ agonist activity
same,μ agonist activity in [35S]GTP-γ-S binding,μ receptor [8],failed to display μ agonist activity
same,Ki,κ receptor,11.2 ± 0.44 nM
same,analgesic activity in the tail-flick assay,mice [9],partial agonist activity
same,agonist activity MVD (δ) % max resp,[4],21%
same,% nociception @ 100 nmol,"mice [10]; icv, 100 nmol, mouse tail-flick",21% @ 100 nmol^f
same,naloxone sensitivity,mice [10],yes
same,Ki,δ receptor,0.184 nM
same,tolerance to antinociceptive effects,mice [11],did not produce tolerance
"CN1CC[C@]23c4c5ccc(O)c4O[C@H]2c2ncc(-c4ccc(Cl)cc4)cc2C[C@H]3[C@H]1C5 [7h, 5′-(4-Chlorophenyl)-6,7-didehydro-4,5α-epoxy-3-hydroxy-17-methylpyrido[2′,3′:6,7]morphinan]",shift in antinociceptive A50 value after repeated injections,mice [12],less than 1.1 fold
same,Ki,opioid δ receptor [13],4.4 ± 0.2 nM
same,Ki,κ receptor,333 ± 25 nM
same,IC50,[14],565 ± 12.7 nM
same,Emax,μ receptor [15],48 ± 2%
same,selectivity ratio μ/δ,opioid μ receptor [16]; ratio of binding Ki values,34
same,Ki,"opioid μ receptor [16]; read-out: Ki (nM) ± SEM μ, displacement of [3H]DAMGO (1.4-3.0 nM), rat brain membranes",148 ± 9.5 nM
same,selectivity ratio κ/δ,opioid κ receptor [17]; ratio of binding Ki values,18
same,Ki,"opioid κ receptor [17]; read-out: Ki (nM) ± SEM κ, displacement of [3H]U69,593 (1.2-[…]), guinea pig brain membranes",78 ± 13 nM
same,Kb,[18],21.9 ± 2.14 nM
same,A50,"mice [10]; icv, mouse tail-flick, at time of peak drug effect",42.8 nmol
same,A50 potency value in the tail flick assay,"mice [10]; mice, full agonist efficacy, FIG. 2",21.9
same,naloxone sensitivity,mice [10],yes
same,blockade of antinociceptive activity by μ selective antagonist β-FNA,"mice [10]; β-FNA 19 nmol, icv, -24 h, FIG. 3",completely blocked
same,Ki,δ receptor,11 nM
